Inhibition data for one compound are collected here from US20060063783A1, “Sulphonylpiperidine derivatives containing an alkenyl or alkynyl moiety for use as matrix metalloproteinase inhibitors” (ASTRAZENECA AB, priority 2002, published 2006).

This test addresses T1, proTNFα convertase enzyme (TACE) (Homo sapiens, UniProt P78536).
T1 construct: a partially purified, isolated enzyme assay, the enzyme being obtained from the membranes of THP-1; endogenous in cells; host or cells: THP-1 cell membranes (partially purified, per Mohler et al. 1994 Nature 370:218-220)
The experiment in a line: Partially purified, isolated enzyme assay for proTNFα convertase (TACE), fluorescent peptide substrate. The class given is biochemical. The conditions noted are these: 10 μM of compound; enzyme from membranes of THP-1. How it is done: Recombinant human proMMP13 may be expressed and purified as described by Knauper et al. [V. Knauper et al., (1996) The Biochemical Journal 271:1544-1550 (1996)]. […] Activity is determined by measuring the fluorescence at λex 328 nm and λem 393 nm. Percent inhibition is calculated as follows: % Inhibition is equal to the [Fluorescenceplus inhibitor−Fluorescencebackgrouud] divided by the [Fluorescenceminus inhibitor−Fluorescencebackground].
The ability of the compounds to inhibit proTNFα convertase enzyme (TACE) may be assessed using a partially purified, isolated enzyme assay, the enzyme being obtained from the membranes of THP-1 as described by K. M. Mohler et al., (1994) Nature 370:218-220. The purified enzyme activity and inhibition thereof is determined by incubating the partially purified enzyme in the presence or absence of test compounds using the substrate 4′,5′-Dimethoxy-fluoresceinyl Ser.Pro.Leu.Ala.Gln.Ala.Val.Arg.Ser.Ser.Ser.Arg.Cys(4-(3-succinimid-1-yl)-fluorescein)-NH2 in assay buffer (50 mM Tris HCl, pH 7.4 containing 0.1% (w/v) Triton X-100 and 2 mM CaCl2), at 26° C. for 4 hours. The amount of inhibition is determined as for MMP13 except λex 485 nm and λem 538 nm were used. […]

T1 sequence (P78536 215-824): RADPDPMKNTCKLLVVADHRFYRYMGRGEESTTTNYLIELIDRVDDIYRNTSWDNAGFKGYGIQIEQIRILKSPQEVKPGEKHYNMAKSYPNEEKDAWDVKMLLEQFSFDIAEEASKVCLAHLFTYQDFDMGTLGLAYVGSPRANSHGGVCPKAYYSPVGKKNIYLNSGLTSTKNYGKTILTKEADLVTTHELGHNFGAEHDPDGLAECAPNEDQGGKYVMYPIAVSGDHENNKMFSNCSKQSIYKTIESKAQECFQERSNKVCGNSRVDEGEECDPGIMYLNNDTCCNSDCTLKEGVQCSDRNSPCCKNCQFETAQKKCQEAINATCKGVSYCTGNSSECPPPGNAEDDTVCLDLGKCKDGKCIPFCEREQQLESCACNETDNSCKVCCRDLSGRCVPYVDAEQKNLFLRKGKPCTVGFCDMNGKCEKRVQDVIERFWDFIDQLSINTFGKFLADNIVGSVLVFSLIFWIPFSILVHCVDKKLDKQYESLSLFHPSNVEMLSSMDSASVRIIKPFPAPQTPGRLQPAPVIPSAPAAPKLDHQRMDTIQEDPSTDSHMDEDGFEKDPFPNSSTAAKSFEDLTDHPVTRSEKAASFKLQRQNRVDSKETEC

`CC#CCOC1CCN(S(=O)(=O)CC(CCCc2ncccn2)N(O)C=O)CC1` (racemic) [compound 1, (R/S)-1-({[4-(But-2-ynyloxy)piperidin-1-yl]sulphonyl}methyl)-4-pyrimidin-2-ylbutyl(hydroxy)formamide]: 10 µM produced 72% inhibition.
